# Assay: log P by HPLC on a reversed-phase column (C18), EEC Directive 79/831 Annex V.A8
# Format: physicochemical
# Procedure: The stated log P values were determined in accordance with EEC Directive 79/831 Annex V.A8 by HPLC (High Performance Liquid Chromatography) using a reversed-phase column (C18).
# [1] = HCOOH, Table 4, compounds of formula I-A-Q4
# [2] = HPLC, reversed-phase C18, mobile phase with formic acid
Structure (SMILES),log P (HCOOH) (HCOOH),further results
Cc1nc(CNC(=O)c2ccc(-n3nc(C(F)(F)F)c(-c4cc(Cl)cc(Cl)c4)c3N)cc2C)no1 [I-A-Q2-059],I-A-Q2-059: log P (HCOOH): 3.63,–
Cc1nc(CNC(=O)c2ccc(-n3nc(C(F)(F)F)c(-c4cc(Cl)cc(Cl)c4)c3N)cc2C)cs1 [I-A-Q2-041],I-A-Q2-041: log P (HCOOH): 3.94,–
Cc1cc(-n2nc(C(F)(F)F)c(-c3cc(Cl)cc(Cl)c3)c2N)ccc1C(=O)N(C)CC(F)(F)F [I-A-Q2-236],I-A-Q2-236: log P (HCOOH): 4.51,–
Nc1c(-c2cc(Cl)cc(Cl)c2)c(C(F)(F)F)nn1-c1ccc(C(=O)NC2CC2)cc1 [I-A-Q2-136],I-A-Q2-136: log P (HCOOH): 3.80,–
Cc1cc(-n2nc(C(F)(F)F)c(Cl)c2N)ccc1C(=O)O [XI-A-085],XI-A-085: log P (HCOOH): 1.95,–
Cc1ccc(-c2c(C(F)(F)F)nn(-c3ccc(Cl)cn3)c2N)cc1 [I-A-Q4-055],–,log P (HCOOH) [1]: I-A-Q4-055: log P (HCOOH): 4.83
N#Cc1cc(-n2nc(C(F)(F)F)c(-c3cc(F)cc(Cl)c3)c2N)ccc1-n1cncn1 [I-A-Q1-037],–,log P (HCOOH) [2]: I-A-Q1-037: log P (HCOOH): 3.33
Cc1cc(-n2nc(C(F)F)c(-c3ccc(F)cc3F)c2N)ccc1C(=O)NCc1ccccn1 [I-A-Q2-361],I-A-Q2-361: log P (HCOOH): 1.91,–
CCOC(=O)c1ccc(-n2nc(C(F)(F)F)c(-c3cc(Cl)cc(Cl)c3)c2N)cc1 [I-A-Q4-086],–,log P (HCOOH) [1]: I-A-Q4-086: log P (HCOOH): 4.93
Cc1cc(-n2nc(C(F)(F)F)c(-c3cc(Cl)cc(Cl)c3)c2Cl)ccc1C(=O)NCc1ncccn1 [I-A-Q2-277],I-A-Q2-277: log P (HCOOH): 4.56,–
Cc1cc(C)cc(-c2c(C(F)(F)F)nn(-c3ccc(C(=O)NC(C)C(F)(F)F)cc3)c2N)c1 (centres unmarked) [I-A-Q2-178],I-A-Q2-178: log P (HCOOH): 3.89,–
Cc1cc(-n2nc(C(F)(F)Oc3ccc(Cl)c(Cl)c3)c(-c3cc(Cl)cc(C(F)(F)F)c3)c2N)ccc1C(=O)NCC(F)(F)C(F)F [I-A-Q2-300],I-A-Q2-300: log P (HCOOH): 5.40,–
Cc1cc(-n2nc(C(F)(F)F)c(-c3cccc(Br)c3)c2N)ccc1C(=O)NCC(F)(F)C(F)F [I-A-Q2-314],I-A-Q2-314: log P (HCOOH): 3.65,–
C[S+]([O-])c1cc(-n2nc(C(F)(F)F)c(-c3cc(Cl)cc(Cl)c3)c2N)ccc1C(=O)NCc1ccccn1 (centres unmarked) [I-A-Q2-424],I-A-Q2-424: log P (HCOOH): 2.75,–
Cc1cc(-n2nc(C(F)(F)F)c(-c3cc(Cl)cc(Cl)c3)c2N)ccc1C(=O)NC(c1ccccc1)C(F)(F)F (centres unmarked) [I-A-Q2-241],I-A-Q2-241: log P (HCOOH): 4.89,–
Nc1c(-c2ccc(Br)cc2)c(C(F)(F)F)nn1-c1ccc(C(=O)NCc2ccccn2)cc1 [I-A-Q2-191],I-A-Q2-191: log P (HCOOH): 2.57,–
CCc1nn(-c2ccc(Cl)cn2)c(N)c1-c1ccc(Cl)cc1 [I-A-Q4-026],–,log P (HCOOH) [1]: I-A-Q4-026: log P (HCOOH): 5.02
Nc1c(-c2ccc(Cl)cc2)c(C(F)(F)C(F)(F)F)nn1-c1ccc(Cl)cn1 [I-A-Q4-058],–,log P (HCOOH) [1]: I-A-Q4-058: log P (HCOOH): 5.44
Cc1nn(-c2ccc(-n3cncn3)c(C#N)c2)c(N)c1-c1ccccc1 [I-A-Q1-066],–,log P (HCOOH) [2]: I-A-Q1-066: log P (HCOOH): 2.14
Nc1c(-c2cc(Cl)cc(Cl)c2)c(C(F)(F)F)nn1-c1ccc(C(=O)NCC(F)(F)F)cc1 [I-A-Q2-138],I-A-Q2-138: log P (HCOOH): 4.21,–
Nc1c(-c2ccc(Cl)cc2)c(-c2ccccc2)nn1-c1ccc(Cl)cn1 [I-A-Q4-028],–,log P (HCOOH) [1]: I-A-Q4-028: log P (HCOOH): 5.64

Structure (SMILES),log P (HCOOH) (HCOOH),further results
Cc1cc(-n2nc(C(F)(F)F)c(-c3cc(Cl)cc(Cl)c3)c2N)ccc1C(=O)NC1CCCCC1 [I-A-Q2-222],I-A-Q2-222: log P (HCOOH): 4.76,–
Cc1cc(-n2nc(C)c(-c3ccccc3Cl)c2N)ccc1C(=O)NCc1ccccn1 [I-A-Q2-373],I-A-Q2-373: log P (HCOOH): 1.64,–
Cc1cc(C)cc(-c2c(C(F)(F)F)nn(-c3ccc(C(=O)NC4CC4)cc3)c2N)c1 [I-A-Q2-179],I-A-Q2-179: log P (HCOOH): 3.24,–
CC(NC(=O)c1ccc(-n2nc(C(F)(F)F)c(-c3cc(Cl)cc(Cl)c3)c2N)nc1)c1ccccc1 (centres unmarked) [I-A-Q2-103],I-A-Q2-103: log P (HCOOH): 5.19,–
Nc1c(-c2cccc(Br)c2)c(C(F)(F)F)nn1-c1ccc(Cl)cn1 [I-A-Q4-052],–,log P (HCOOH) [1]: I-A-Q4-052: log P (HCOOH): 5.02
Nc1c(-c2cccc(F)c2)c(C(F)(F)F)nn1-c1ccc(Cl)cn1 [I-A-Q4-049],–,log P (HCOOH) [1]: I-A-Q4-049: log P (HCOOH): 4.51
Cc1ccccc1-c1c(C(F)(F)F)nn(-c2ccc(-n3cncn3)c(C#N)c2)c1N [I-A-Q1-039],–,log P (HCOOH) [2]: I-A-Q1-039: log P (HCOOH): 2.89
Cc1cc(-n2nc(C(F)(F)F)c(I)c2N)ccc1C(=O)O [XI-A-087],XI-A-087: log P (HCOOH): 2.58,–
Cc1cc(-n2nc(C(F)(F)F)c(-c3cc(Cl)cc(Cl)c3)c2I)ccc1C(=O)NC(C)C(F)(F)F (centres unmarked) [I-A-Q2-026],I-A-Q2-026: log P (HCOOH): 5.44,–
CNC(=O)c1ccc(-n2nc(C(F)(F)F)c(-c3ccc(Cl)c(Cl)c3)c2N)cc1 [I-A-Q2-194],I-A-Q2-194: log P (HCOOH): 3.37,–
N#Cc1cc(-n2nc(C(F)(F)F)c(-c3cc(Cl)cc(Cl)c3)c2N)ccc1-n1nc(C(F)(F)F)nc1N [I-A-Q1-093],–,log P (HCOOH) [2]: I-A-Q1-093: log P (HCOOH): 4.00
CCCC(NC(=O)c1ccc(-n2nc(C(F)(F)F)c(-c3cc(Cl)cc(Cl)c3)c2N)cc1C)C(F)(F)F (centres unmarked) [I-A-Q2-201],I-A-Q2-201: log P (HCOOH): 5.11,–
Cc1nn(-c2ccc(Cl)cn2)c(N)c1-c1cc(F)ccc1F [I-A-Q4-033],–,log P (HCOOH) [1]: I-A-Q4-033: log P (HCOOH): 3.84
Nc1c(-c2ccc(Cl)c(F)c2)c(C(F)(F)F)nn1-c1ccc(C(=O)NCc2ccccn2)cc1 [I-A-Q2-171],I-A-Q2-171: log P (HCOOH): 2.53,–
Nc1c(-c2cc(Cl)cc(Cl)c2)c(C(F)(F)F)nn1-c1ccc(C(=O)NCc2cccnc2)cn1 [I-A-Q2-107],I-A-Q2-107: log P (HCOOH): 2.95,–
Nc1[nH]nc(C(F)(F)F)c1-c1ccc(F)cc1 [IX-202],–,"log P (HCOOH) (HCOOH, compounds of the formula (IX), Table 11): IX-202: log P (HCOOH): 2.16"
Nc1c(-c2ccc(Cl)cc2)c(C(F)(F)F)nn1-c1ccc(C(=O)NC2CC2)cc1 [I-A-Q2-163],I-A-Q2-163: log P (HCOOH): 3.13,–
Cc1cc(-n2nc(C(F)(F)F)c(-c3cc(Cl)cc(Cl)c3)c2N)ccc1C(=O)NCc1cccnc1 [I-A-Q2-216],I-A-Q2-216: log P (HCOOH): 2.57,–
Nc1c(-c2ccc(I)cc2)c(C(F)(F)F)nn1-c1ccc(Cl)cn1 [I-A-Q4-051],–,log P (HCOOH) [1]: I-A-Q4-051: log P (HCOOH): 5.29
Cc1cc(-n2nc(C)c(-c3ccc(Cl)cc3)c2N)ccc1C(=O)NCC(F)(F)C(F)F [I-A-Q2-330],I-A-Q2-330: log P (HCOOH): 3.12,–
Cc1cc(-n2nc(C(F)(F)F)c(-c3cc(F)cc(Cl)c3)c2N)ccc1C(=O)NCc1ccccn1 [I-A-Q2-344],I-A-Q2-344: log P (HCOOH): 2.84,–

Structure (SMILES),log P (HCOOH) (HCOOH),further results
N#Cc1cc(-n2nc(C(F)(F)F)c(-c3ccc(F)c(F)c3)c2N)ccc1-n1cncn1 [I-A-Q1-044],–,log P (HCOOH) [2]: I-A-Q1-044: log P (HCOOH): 3.10
N#Cc1cc(-n2nc(C(F)(F)F)c(-c3cc(Cl)cc(Cl)c3)c2N)ccc1-n1cccn1 [I-A-Q1-082],–,log P (HCOOH) [2]: I-A-Q1-082: log P (HCOOH): 4.34
Nc1c(-c2cc(Cl)cc(Cl)c2)c(C(F)(F)F)nn1-c1ccc(C(=O)NCC2CC2)cc1 [I-A-Q2-149],I-A-Q2-149: log P (HCOOH): 4.15,–
Cc1cc(-n2nc(C(F)(F)F)c(-c3cc(Cl)cc(Cl)c3)c2N)ccc1C(=O)NCC(C)C [I-A-Q2-227],I-A-Q2-227: log P (HCOOH): 4.40,–
Cc1cc(-n2nc(C(F)(F)F)c(-c3cc(Cl)cc(Cl)c3)c2N)ccc1C(=O)NC1COC1 [I-A-Q2-044],I-A-Q2-044: log P (HCOOH): 3.42,–
Cc1nc(C)n(-c2ccc(-n3nc(C(F)(F)F)c(-c4cc(Cl)cc(Cl)c4)c3N)cc2C#N)n1 [I-A-Q1-083],–,log P (HCOOH) [2]: I-A-Q1-083: log P (HCOOH): 3.84
Cc1cc(-n2nc(C(F)(F)F)c(-c3cc(Cl)cc(Cl)c3)c2N)ccc1C(=O)NC(C)c1ccc(F)cc1 (centres unmarked) [I-A-Q2-247],I-A-Q2-247: log P (HCOOH): 4.57,–
Nc1c(-c2ccc(Cl)cc2)c(C(F)(F)F)nn1-c1ccc(C(=O)NCC(F)(F)F)cc1 [I-A-Q2-162],I-A-Q2-162: log P (HCOOH): 3.51,–
CC(NC(=O)c1ccc(-n2nc(C(F)(F)F)c(-c3ccc(Cl)c(F)c3)c2N)cc1)C(F)(F)F (centres unmarked) [I-A-Q2-166],I-A-Q2-166: log P (HCOOH): 3.84,–
CCc1nn(-c2ccc(C(=O)NCC(F)(F)C(F)F)c(C)c2)c(N)c1-c1ccc(Cl)cc1 [I-A-Q2-339],I-A-Q2-339: log P (HCOOH): 3.27,–
CCCc1nn(-c2ccc(C(=O)NCc3ccccn3)c(C)c2)c(N)c1-c1ccc(Cl)cc1 [I-A-Q2-380],I-A-Q2-380: log P (HCOOH): 2.53,–
Cc1cc(CNC(=O)c2ccc(-n3nc(C(F)(F)F)c(-c4cc(Cl)cc(Cl)c4)c3N)cc2C)n(C)n1 [I-A-Q2-254],I-A-Q2-254: log P (HCOOH): 3.58,–
Cc1cc(-n2nc(C(F)(F)F)c(-c3cc(Cl)cc(Cl)c3)c2N)ccc1C(=O)NCc1ccc(C(F)(F)F)cn1 [I-A-Q2-233],I-A-Q2-233: log P (HCOOH): 4.40,–
Cc1cc(-n2nc(C3CC3)c(-c3ccc(Cl)cc3)c2N)ccc1C(=O)NCC(F)(F)C(F)F [I-A-Q2-341],I-A-Q2-341: log P (HCOOH): 3.46,–
Nc1c(-c2ccc(F)c(F)c2)c(C(F)(F)F)nn1-c1ccc(C(=O)NCc2ccccn2)cc1 [I-A-Q2-177],I-A-Q2-177: log P (HCOOH): 2.27,–
N#Cc1cc(-n2nc(C(F)(F)F)c(-c3cc(Cl)cc(Cl)c3)c2N)ccc1-n1nc(C(F)F)cc1C(F)F [I-A-Q1-080],–,log P (HCOOH) [2]: I-A-Q1-080: log P (HCOOH): 4.64
Cc1cc(-n2nc(C(F)(F)F)c(-c3cc(Cl)cc(Cl)c3)c2N)ccc1C(=O)NC(C)c1ccc(Cl)cc1 (centres unmarked) [I-A-Q2-213],I-A-Q2-213: log P (HCOOH): 4.89,–
Cc1cc(-n2nc(C(F)(F)F)c(Cl)c2N)ccc1C(=O)NCc1ccccn1 [XI-A-091],XI-A-091: log P (HCOOH): 1.94,–
CNC(=O)c1ccc(-n2nc(C(F)(F)F)c(-c3cccc(Cl)c3)c2N)cc1 [I-A-Q2-094],I-A-Q2-094: log P (HCOOH): 2.76,–
Cc1cc(-n2nc(C(F)(F)F)c(-c3ccc(Cl)c(Cl)c3)c2N)ccc1C(=O)NCC(F)(F)C(F)F [I-A-Q2-304],I-A-Q2-304: log P (HCOOH): 4.00,–

# Reference: US20110190365A1, “Insecticidal 4-phenyl-1H-pyrazoles” (Bayer Crop Science AG, priority 2008, published 2011)
